Measured values reported in paper PMC5735135, “Oxidative rearrangement of (+)-sesamin by CYP92B14 co-generates twin dietary lignans in sesame” (Nature Communications, 2017).

Assays:
CYP92B14 [1] = molecular target: T1, CYP92B14 (Sesamum indicum, UniProt A0A2Z5U627); experiment: inhibition of (+)-sesamolin and (+)-sesaminol formation; assay type: cell-based; conditions: substrate (+)-sesamin; also a reaction by-product
T1 construct: full-length ORF expressed in yeast INVSc with sesame CPR1 (GenBank LC209223) as reductase; microsomes or whole yeast cells
T1 sequence (A0A2Z5U627 1-513): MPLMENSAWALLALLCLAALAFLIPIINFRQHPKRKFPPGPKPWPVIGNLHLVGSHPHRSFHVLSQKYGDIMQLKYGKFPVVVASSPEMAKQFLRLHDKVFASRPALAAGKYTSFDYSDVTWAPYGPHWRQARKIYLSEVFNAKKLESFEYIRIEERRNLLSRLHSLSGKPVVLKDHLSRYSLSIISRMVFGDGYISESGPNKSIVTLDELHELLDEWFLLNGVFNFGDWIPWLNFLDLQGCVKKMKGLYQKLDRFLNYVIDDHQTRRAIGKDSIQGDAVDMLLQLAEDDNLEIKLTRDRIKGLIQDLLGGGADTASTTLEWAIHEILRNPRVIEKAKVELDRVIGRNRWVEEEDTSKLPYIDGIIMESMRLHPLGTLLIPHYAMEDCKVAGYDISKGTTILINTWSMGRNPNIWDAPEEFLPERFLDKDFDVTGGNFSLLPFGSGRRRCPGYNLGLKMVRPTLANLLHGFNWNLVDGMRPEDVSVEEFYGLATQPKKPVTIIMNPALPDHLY

CYP81Q1 = molecular target: T2, CYP81Q1 (Sesamum indicum, UniProt Q33DY0); experiment: HPLC of products formed by yeast cells ([…] nm); assay type: cell-based; conditions: CPR1 and CYP92B14 co-expressed, 48 h
T2 construct: full-length ORF expressed in yeast INVSc with sesame CPR1 (and CYP92B14); whole yeast cells
T2 sequence (Q33DY0 1-506): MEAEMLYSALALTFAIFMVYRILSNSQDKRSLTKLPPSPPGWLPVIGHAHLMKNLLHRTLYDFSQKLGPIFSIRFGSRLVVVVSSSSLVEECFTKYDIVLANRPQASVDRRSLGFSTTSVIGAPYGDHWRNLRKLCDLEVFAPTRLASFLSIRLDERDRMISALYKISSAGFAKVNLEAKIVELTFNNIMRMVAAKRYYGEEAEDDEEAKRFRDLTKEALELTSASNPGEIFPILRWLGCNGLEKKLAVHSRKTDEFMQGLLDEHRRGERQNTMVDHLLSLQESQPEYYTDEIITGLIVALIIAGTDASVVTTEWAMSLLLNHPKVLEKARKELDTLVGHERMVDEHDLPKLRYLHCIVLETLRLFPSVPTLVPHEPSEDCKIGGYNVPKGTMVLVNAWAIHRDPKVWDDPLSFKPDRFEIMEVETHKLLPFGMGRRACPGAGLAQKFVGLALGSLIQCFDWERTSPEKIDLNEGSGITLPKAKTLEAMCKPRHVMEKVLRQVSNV

CYP92B14 [2] = molecular target: T1, CYP92B14; experiment: HPLC of products formed by yeast microsomes; assay type: biochemical; conditions: 100 uM (+)-sesamin, 1 mM NADPH, CPR1 co-expressed, 37 °C, 60 min

Structure (SMILES) | inhibition of (+)-sesamolin and (+)-sesaminol formation (CYP92B14 [1]) | HPLC of products formed by yeast microsomes (CYP92B14 [2]) | further results
OC1OC[C@@H]2[C@@H](c3ccc4c(c3)OCO4)OC[C@H]12 (single isomer, unassigned; (+)) [(+)-samin] | the supplementation of these two compounds clearly inhibited the biosynthetic activity of CYP92B14 | – | –
COc1cc([C@H]2OC[C@H]3[C@@H]2CO[C@@H]3c2ccc(O)c(OC)c2)ccc1O [(+)-pinoresinol] | – | – | HPLC of products formed by yeast cells (283 nm) (CYP81Q1): co-expressing CYP81Q1, CYP92B14, and CPR1 converted (+)-pinoresinol to (+)-sesaminol and (+)-sesamolin via (+)-sesamin
c1cc2c(cc1[C@H]1OC[C@H]3[C@@H]1CO[C@@H]3c1ccc3c(c1)OCO3)OCO2 [(+)-sesamin] | – | yeast cells expressing CYP92B14 and CPR1 converted (+)-sesamin to (+)-sesamolin | –
c1cc2c(cc1O[C@H]1OC[C@H]3[C@@H]1CO[C@@H]3c1ccc3c(c1)OCO3)OCO2 [(+)-sesamolin] | – | yeast cells expressing CYP92B14 and CPR1 converted (+)-sesamin to (+)-sesamolin | –
Oc1ccc2c(c1)OCO2 [sesamol] | the supplementation of these two compounds clearly inhibited the biosynthetic activity of CYP92B14 | – | –
